According to US20060052390A1, “Treatment of multiple myeloma by p38 MAP kinase and proteasome inhibition” (Scios, Inc., priority 2003, published 2006):
Entries after “also recorded” stand apart in the source; their conditions may differ. Structures can show the parent of a compound that is named as a salt. Residues, ends and D or L forms follow the SMILES beside them. *: point of attachment. Cbz = O=C(OCc1ccccc1)*

Columns and labels:
MM cells [1] = experiment: treatment of a patient with multiple myeloma; format: in vivo; settings: in combination with VELCADE
Text: A patient is diagnosed with multiple myeloma. The patient presents with MM cells with rapid growth rates, which displace osteoblasts, and disrupting the balance of bone creation and destruction. A number of MM-related cytokines, such as IL-6, VEGF, IL-11, and PGE-2 are detectable. […] MM cell growth is inhibited and MM-related cytokine product is reduced. A patient diagnosed with multiple myeloma receives VELCADE and responds well until VELCADE-resistant MM cells develop. Drug resistant MM cells with rapid growth rates begin to populate the bone marrow of the subject. Elevated levels of MM-related cytokines, such as IL-6, VEGF, IL-11, and PGE-2 are again detectable.

MAPKAPK-2 = MAPKAPK-2 in vitro kinase assay on immunoprecipitates of cell lysates, GST-Hsp27 substrate; format: cell-based; settings: 0.5 μM
Procedure: (§1) Total cell lysates are immunoprecipitated with anti-MAPKAPK-2 antibody and subjected to in vitro kinase assays using purified GST-Hsp27 as substrate. To examine Hsp27 phosphorylation in MM and transformed B cells, U266, IM9 and RPMI8226 cells are incubated either with DMSO or with 0.5 μM of a p38 MAPK inhibitor and cell lysates are immunoblotted with antibodies to phospho-Hsp27 (Ser 82) and Hsp27.

MM cells [2] = experiment: MM cell viability and proliferation with proteasome inhibitor MG-132; format: cell-based; settings: for proliferation: MG-132 alone
RANKL mRNA = RANKL mRNA induction in BMSC and MM/BMSC cultures; format: cell-based; settings: 100 nM
Procedure: In addition, 100 nM of these p38 MAPK inhibitors blocks the weaker induction of RANKL by IL-6 in BMSC.

HSP-27 = experiment: immunodetection of phospho-HSP-27 in MM cells and BMSC; format: cell-based
Procedure: as §1
U266, IM9 and RPMI8226 cells are incubated with 0.5 μM of the p38 MAPK inhibitor for 1hour and Hsp27 proteins are immunoprecipitated with agarose-conjugated Hsp27 antibody, followed by immunoblotting with anti-phospho Hsp27 (Ser 78) antibody.
(§2) Specific antibodies to p38 MAP kinase are from Santa Cruz Biotechnology (Santa Cruz, Calif.). Antibodies to phospho-p38 MAP kinase (T180/Y182) and phospho-Hsp27 (S82) are from Cell Signaling (Beverly, Mass.). Antibodies to Hsp27 and phospho-Hsp27 (S78) are from Upstate Biotechnology (Lake Placid, N.Y.). Anti-MAPKAPK-2 is from StressGen (San Diego, Calif.) while anti-GAPDH is from Biogenesis Ltd. (Poole, UK).

Hsp27 = experiment: Western blot of heat shock protein levels in MM cells; format: cell-based
Procedure: as §1
Cells are collected at various times and lysates are examined by Western Blot analysis using specific antibodies against particular proteins, with GAPDH as loading control. Specific antibodies to Hsp70 and Hsp90 are from Santa Cruz Biotechnology (Santa Cruz, Calif.).
The Western blots are examined for the total Hsp27 and phospho-Hsp27 levels at three different exposure times. […] This is consistent with observations made previously in MM.1S cells. […] This phenomenon appears to be unique to Hsp27 since a decrease in the levels of Hsp70 or Hsp90 in these same samples is not observed. […] The decrease of phospho-Hsp27 levels in the PS-341-treated cells is commensurate with the decrease of total Hsp27 protein in these cells.

MM/BMSC co-cultures = experiment: MM cell proliferation in MM/BMSC co-cultures with MG-132; format: cell-based; settings: MM cells co-cultured with BMSC; FIG. 7
Procedure: Thus, proteasome inhibitors such as VELCADE might be limiting their own ability to induce apoptosis of MM cells by inducing growth-supporting activity in the microenvironment. Inhibition of the p38 response by BMSC would counteract this support.
For these studies, U266, IM9 and RPMI8226 cells are incubated with DMSO (−) or with 0.5 μM of a disclosed p38 MAPK inhibitor (+) for 1 hour and cell lysates are immunoblotted with antibodies to phospho-p38 and p38 MAP kinase by Western analysis. U266B1 and RPMI8226 are MM cell lines, and IM9 is an Epstein Barr Virus (EBV)-transformed B cell line with characteristics of MM cells. All can be obtained from American Type Culture Collection (ATCC; Rockville, Md.). All cell lines are maintained in RPMI-1640 (ATCC), supplemented with 10% fetal bovine serum (Hyclone; Logan, Utah), 100 units/ml of penicillin, 100 μg/ml streptomycin and 2 mM L-glutamine (Life Technologies, Inc.; Grand Island, N.Y.). BMSC (Cambrex) are maintained in Myelocult H5100 supplemented with 10^−6 M hydrocortisone (Stem Cell Technologies; Vancouver, B.C.), 100 units/ml of penicillin and 100 μg/ml streptomycin. MM cells are usually seeded at a density of 3×10^4 cells/well in 96-well culture plates. For MM co-cultures, BMSC are first seeded at 1.2×10^4 cells/well in a 96-well plate in Myelocult/hydrocortisone medium for 24 hours prior to the addition of MM cells.

[3] = tested on: calpains, cathepsins, and other lysosomal enzymes; settings: cited from earlier work
p38α MAPK = target: T1, p38α MAPK (Homo sapiens, UniProt Q16539); experiment: p38α phospho-specific immunodetection in MM cells and BMSC; format: cell-based; settings: BMSC treated with MG-132
T1 construct: endogenous in cells; host or cells: U266, IM9, RPMI8226 cells; BMSC
T1 sequence (Q16539 whole entry): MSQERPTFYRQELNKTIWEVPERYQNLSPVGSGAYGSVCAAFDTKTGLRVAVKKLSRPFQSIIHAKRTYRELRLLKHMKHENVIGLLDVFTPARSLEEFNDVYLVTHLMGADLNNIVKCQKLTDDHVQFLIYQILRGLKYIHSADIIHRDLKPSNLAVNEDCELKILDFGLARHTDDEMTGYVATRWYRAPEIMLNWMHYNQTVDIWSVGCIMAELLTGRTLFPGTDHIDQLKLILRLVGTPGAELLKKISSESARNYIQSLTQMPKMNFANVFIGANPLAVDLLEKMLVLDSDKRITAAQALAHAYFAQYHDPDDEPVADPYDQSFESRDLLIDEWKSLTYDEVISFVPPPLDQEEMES
Text: as §2

RPMI8226 cells = experiment: apoptosis by Annexin V-PE flow cytometry in RPMI8226 cells; format: cell-based
Procedure: Cells are collected at indicated times and assayed.
(§3) Detection of apoptotic cells was performed by staining with Annexin V-Phycoerythrin (PE) and 7-Amino Actinomycin D (7-AAD) (BD Pharmigen; San Diego, Calif.). Samples are analyzed by dual color flow cytometry using a FACScan laser flow cytometer and Cell Quest software (Becton Dickinson; San Jose, Calif.). 7-AAD is a nucleic acid dye that is used to exclude nonviable cells in flow cytometric assays. Cells that are Annexin V-PE positive and 7-AAD negative are considered early apoptotic. Antibodies to caspase-3, -6, -7, -8, -9, and PARP are from Cell Signaling (Beverly, Mass.).

[4] = MM patients; cited from earlier work
caspases and PARP = experiment: Western blot of caspase activation and PARP cleavage in MM cells; format: cell-based; settings: RPMI8226; increasing duration of PS-341 treatment
Procedure: as §3
Protein lysates from RPMI8226 cells obtained at these time points are collected in parallel and examined for Hsp27 levels, caspase activation and PARP cleavage by Western blot analysis.

[5] = RPMI8226, 10 nM PS-341, 8 hours

## C[C@@H]1CN(Cc2ccc(F)cc2)[C@@H](C)CN1C(=O)c1cc2c(C(=O)C(=O)N(C)C)cn(C)c2cc1Cl [Compound 57 hydrochloride salt]
MM cells [1]; patient with VELCADE-resistant MM
  sensitivity of the MM cells to VELCADE: restores the sensitivity
MM cells [1]; patient
  MM-related cytokine product: reduced
MM cells [1]; patient, listed as Compound 57 in the hydrochloric salt form
  MM cell growth: again inhibited

## C[C@@H]1CN(Cc2ccc(F)cc2)[C@@H](C)CN1C(=O)c1cc2c(C(=O)C(=O)N(C)C)cn(C)c2cc1Cl [Compound 57]
MAPKAPK-2
  activity of downstream substrate MAPKAPK-2: suppresses
MM cells [2]; MG-132 in the presence of the p38 MAPK inhibitor, related to the dose of both
  IM9 proliferation: reduced or entirely blocked
MM cells [2]; co-exposure with MG-132, MM cells, FIG. 6
  effect on the reduction of MM cell viability and proliferation caused by MG-132: enhanced the reduction of MM cell viability and proliferation; also recorded: enhances the anti-proliferative effect
RANKL mRNA; BMSC
  induction of RANKL by IL-6: blocks
RANKL mRNA; BMSC and MM/BMSC cultures, FIG. 5
  induction of RANKL mRNA by TGFβ and IL-1: blocked this induction
RANKL mRNA; FIG. 5
  basal expression of RANKL mRNA: blocked
HSP-27; BMSC
  phosphorylation of HSP-27: blocked phosphorylation of HSP-27 completely
HSP-27; MM cells
  phosphorylation of HSP-27: blocked phosphorylation of HSP-27 completely
HSP-27; U266, IM9 and RPMI8226, 0.5 μM, cell lysates or immunoprecipitation
  Hsp27 phosphorylation: inhibits
HSP-27; both drugs (PS-341 and p38 MAPK inhibitor), all time points
  Hsp27 phosphorylation: complete inhibition
Hsp27; 0.5 μM with 10 nM PS-341, 12 and 16 hours, RPMI8226 and IM9 cells
  total Hsp27: enhanced reduction
Hsp27; inhibitor alone, even after prolonged incubation
  total Hsp27 levels: does not affect
MM/BMSC co-cultures
  effect on the ability of MG-132 to reduce MM cell proliferation: enhanced the ability of MG-132 to reduce MM cell proliferation; also recorded: enhances the anti-proliferative effect

## CC(C)C[C@@H](C=O)NC(=O)[C@H](CC(C)C)NC(=O)[C@H](CC(C)C)NC(=O)OCc1ccccc1 [MG-132, Carbobenzoxy-L-Leucyl-L-Leucyl-L-Leucinal, reference compound] (Cbz-Leu-Leu-Leu-aldehyde)
MM cells [2]; HS Sultan MM cells
  proliferation: block completely
MM cells [2]; IM9 MM cells
  sensitivity of proliferation to MG-132 alone: not sensitive
MM cells [2]; U266 MM cells
  proliferation: block completely
[3]
  concentrations with activity against calpains, cathepsins and other lysosomal enzymes, above those used in the disclosed experiments: ≥ 10 -fold
p38α MAPK
  activation of p38: resulted in activation of p38

## CC(C)C[C@H](NC(=O)[C@H](Cc1ccccc1)NC(=O)c1cnccn1)B(O)O [PS-341]
RPMI8226 cells; 10 nM PS-341, 8 hours
  apoptotic cells: early apoptotic cells are apparent
RPMI8226 cells; 10 nM PS-341, 12 hours
  apoptotic cells: about half the cells
RPMI8226 cells; 10 nM PS-341, 16 hours
  apoptotic cells: most
[4]
  clinically observed circulating concentration: 40 to 100 nM
Caspases and PARP
  PARP cleavage: proportional increase
  activation or cleavage of procaspases-8, -9, -3, -6, and -7: successively increasing activation or cleavage
Hsp27; RPMI8226, 10 nM PS-341, 12 and 16 hours
  Hsp27 protein levels: reduced
Hsp27; [5]
  Hsp27 expression: induced
  Hsp70 expression: induced
Hsp27; RPMI8226, 10 nM PS-341, same samples
  decrease in the levels of Hsp70 or Hsp90: not observed
